In US20240360113A1, “AMINOARYL-INTEGRIN AGONISTS COMPOUNDS” (Texas Heart Institute, priority 2021, published 2024):
pEC50: −log10 of the molar value.

How the values were obtained:
α4β1/VCAM-1 = target: T1, α4β1/VCAM-1 (Homo sapiens, UniProt P05556+P13612); assay: Static cell adhesion assay, Jurkat cells on VCAM-1 (VLA-4 agonist activity); format: cell-based; conditions: for Group against VCAM: EC50 relative to THI0349 (average 11 uM) run on the same plate, Jurkat cells, 50% FBS; for pEC50: assay conditions reported herein, in the presence of serum, read-out: EC50 against VCAM
T1 construct: The Jurkat (VCAM-1 assays) and HSB (ICAM-1 assays) cell lines were obtained from American Type Culture Collection; endogenous in cells; host or cells: Jurkat (ATCC)
Method: (§1) For in vitro cell adhesion assays, compounds were dissolved in DMSO to make a series of stock solutions such that a 1:100 dilution in assay buffer would yield the desired final working concentrations in 1% DMSO (vehicle). Human VCAM-1 and ICAM-1 were purchased from R&D Systems (Minneapolis, MN). The Jurkat (VCAM-1 assays) and HSB (ICAM-1 assays) cell lines were obtained from American Type Culture Collection (Manassas, VA) and were maintained in recommended culture media.
(§2) Assays were performed as previously described in Vanderslice et al., (2010), Biochem Biophys Res Commun 400, 619-624; and Vanderslice et al., (2013) J Biol Chem 288, 19414-19428. VCAM-1 or ICAM-1 ligand in 50 μL of 50 mM Tris-HCl (pH 7.4), 150 mM NaCl, (TBS) was added to wells of a 96-well plate and allowed to coat overnight at 4° C. To maximize the window to evaluate agonist activity, a sub-optimal coating concentration of ligand was used, typically 0.5 and 5 μg/mL in 50 μL TBS for VCAM-1 and ICAM-1 respectively. This ligand concentration corresponded approximately to that which would yield <5% adhesion as determined by dose-response curves. Briefly, 2×10^6 cells were labeled for 30 minutes with calcein-AM (Molecular Probes), washed, resuspended in binding buffer, and added to triplicate wells of ligand-coated plates (2×10^5 cells/well) that had been blocked with 2% BSA. After a 30-minute incubation at 37° C., the plates were washed 3 times with binding buffer, the adherent cells were lysed, and fluorescence was measured on a Tecan Safire^2 plate reader. The binding buffer was PBS with 1 mM MgCl2, 50% FBS for α4β1/VCAM-1 assays and PBS with 2 mM MgCl2, 5 mM EGTA, 50% FBS for αLβ2/ICAM-1 assays. EC50 is defined as the concentration of compound required to achieve 50% of the maximal response.

αLβ2/ICAM-1 = target: T2, αLβ2/ICAM-1 (Homo sapiens, UniProt P05107+P20701); assay: Static cell adhesion assay, HSB cells on ICAM-1 (LFA-1; LAD); format: cell-based; conditions: RFU of compound / RFU of THI0349, both at the same concentration
T2 construct: The Jurkat (VCAM-1 assays) and HSB (ICAM-1 assays) cell lines were obtained from American Type Culture Collection; endogenous in cells; host or cells: HSB (ATCC)
Method: as §1, §2
In relation to LAD (Leukocyte Adhesion Deficiency), LFA-1 ratios are determined by dividing the relative fluorescence units (RFU) of each compound at a concentration of 3 μM over that of the reference standard of THI0349, also at 3 μM, (RFU Compound/RFU of THI0349). Log Ps were calculated by either Chemdraw® version 12 (CambridgeSoft) or ACD/Chemsketch® (ACD/Labs).

T1 sequence (P13612 34-1032): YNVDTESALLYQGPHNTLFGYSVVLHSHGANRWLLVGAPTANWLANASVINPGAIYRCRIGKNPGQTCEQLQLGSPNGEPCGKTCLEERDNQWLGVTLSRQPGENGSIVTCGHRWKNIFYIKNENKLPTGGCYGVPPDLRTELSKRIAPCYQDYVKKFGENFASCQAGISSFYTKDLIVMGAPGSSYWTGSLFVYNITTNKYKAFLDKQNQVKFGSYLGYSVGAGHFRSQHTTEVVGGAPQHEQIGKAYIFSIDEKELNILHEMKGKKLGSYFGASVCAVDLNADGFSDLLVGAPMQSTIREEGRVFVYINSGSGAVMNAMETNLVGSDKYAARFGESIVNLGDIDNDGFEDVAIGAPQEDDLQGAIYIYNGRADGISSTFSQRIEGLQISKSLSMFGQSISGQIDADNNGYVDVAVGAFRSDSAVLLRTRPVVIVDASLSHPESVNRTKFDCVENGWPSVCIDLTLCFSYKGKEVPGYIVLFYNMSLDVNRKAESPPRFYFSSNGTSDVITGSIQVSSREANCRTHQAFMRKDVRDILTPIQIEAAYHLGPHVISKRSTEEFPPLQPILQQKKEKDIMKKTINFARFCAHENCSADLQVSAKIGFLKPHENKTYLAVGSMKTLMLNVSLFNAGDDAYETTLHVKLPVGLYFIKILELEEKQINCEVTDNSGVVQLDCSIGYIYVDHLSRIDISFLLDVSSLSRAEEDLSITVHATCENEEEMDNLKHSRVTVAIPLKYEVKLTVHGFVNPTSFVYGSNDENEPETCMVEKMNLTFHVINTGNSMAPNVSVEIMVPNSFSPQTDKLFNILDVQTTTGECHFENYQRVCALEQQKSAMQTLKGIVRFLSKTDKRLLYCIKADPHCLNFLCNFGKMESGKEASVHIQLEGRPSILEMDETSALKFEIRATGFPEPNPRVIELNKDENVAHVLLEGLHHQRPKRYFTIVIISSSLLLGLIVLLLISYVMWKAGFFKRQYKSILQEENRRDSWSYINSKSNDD
T1 sequence (P05556 21-798): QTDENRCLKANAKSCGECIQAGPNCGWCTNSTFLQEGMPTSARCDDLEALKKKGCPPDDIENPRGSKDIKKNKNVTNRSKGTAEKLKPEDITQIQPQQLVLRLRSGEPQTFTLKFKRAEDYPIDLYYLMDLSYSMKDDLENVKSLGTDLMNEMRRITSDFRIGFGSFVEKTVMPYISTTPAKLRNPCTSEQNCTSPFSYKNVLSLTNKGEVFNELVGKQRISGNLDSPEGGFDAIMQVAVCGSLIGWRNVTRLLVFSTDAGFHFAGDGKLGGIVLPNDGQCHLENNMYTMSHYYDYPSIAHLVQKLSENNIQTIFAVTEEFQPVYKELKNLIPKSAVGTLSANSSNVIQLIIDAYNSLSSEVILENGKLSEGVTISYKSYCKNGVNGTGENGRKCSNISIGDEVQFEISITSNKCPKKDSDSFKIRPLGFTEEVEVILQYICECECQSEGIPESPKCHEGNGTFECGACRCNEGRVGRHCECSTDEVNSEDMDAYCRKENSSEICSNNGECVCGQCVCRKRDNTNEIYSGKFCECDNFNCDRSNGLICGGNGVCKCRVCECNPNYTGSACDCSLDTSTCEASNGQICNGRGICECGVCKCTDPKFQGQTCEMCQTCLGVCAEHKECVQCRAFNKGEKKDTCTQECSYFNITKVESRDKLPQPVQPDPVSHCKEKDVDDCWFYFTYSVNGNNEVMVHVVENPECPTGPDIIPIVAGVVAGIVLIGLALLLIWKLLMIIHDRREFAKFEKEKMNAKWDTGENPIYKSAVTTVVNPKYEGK
T2 sequence (P20701 26-1170): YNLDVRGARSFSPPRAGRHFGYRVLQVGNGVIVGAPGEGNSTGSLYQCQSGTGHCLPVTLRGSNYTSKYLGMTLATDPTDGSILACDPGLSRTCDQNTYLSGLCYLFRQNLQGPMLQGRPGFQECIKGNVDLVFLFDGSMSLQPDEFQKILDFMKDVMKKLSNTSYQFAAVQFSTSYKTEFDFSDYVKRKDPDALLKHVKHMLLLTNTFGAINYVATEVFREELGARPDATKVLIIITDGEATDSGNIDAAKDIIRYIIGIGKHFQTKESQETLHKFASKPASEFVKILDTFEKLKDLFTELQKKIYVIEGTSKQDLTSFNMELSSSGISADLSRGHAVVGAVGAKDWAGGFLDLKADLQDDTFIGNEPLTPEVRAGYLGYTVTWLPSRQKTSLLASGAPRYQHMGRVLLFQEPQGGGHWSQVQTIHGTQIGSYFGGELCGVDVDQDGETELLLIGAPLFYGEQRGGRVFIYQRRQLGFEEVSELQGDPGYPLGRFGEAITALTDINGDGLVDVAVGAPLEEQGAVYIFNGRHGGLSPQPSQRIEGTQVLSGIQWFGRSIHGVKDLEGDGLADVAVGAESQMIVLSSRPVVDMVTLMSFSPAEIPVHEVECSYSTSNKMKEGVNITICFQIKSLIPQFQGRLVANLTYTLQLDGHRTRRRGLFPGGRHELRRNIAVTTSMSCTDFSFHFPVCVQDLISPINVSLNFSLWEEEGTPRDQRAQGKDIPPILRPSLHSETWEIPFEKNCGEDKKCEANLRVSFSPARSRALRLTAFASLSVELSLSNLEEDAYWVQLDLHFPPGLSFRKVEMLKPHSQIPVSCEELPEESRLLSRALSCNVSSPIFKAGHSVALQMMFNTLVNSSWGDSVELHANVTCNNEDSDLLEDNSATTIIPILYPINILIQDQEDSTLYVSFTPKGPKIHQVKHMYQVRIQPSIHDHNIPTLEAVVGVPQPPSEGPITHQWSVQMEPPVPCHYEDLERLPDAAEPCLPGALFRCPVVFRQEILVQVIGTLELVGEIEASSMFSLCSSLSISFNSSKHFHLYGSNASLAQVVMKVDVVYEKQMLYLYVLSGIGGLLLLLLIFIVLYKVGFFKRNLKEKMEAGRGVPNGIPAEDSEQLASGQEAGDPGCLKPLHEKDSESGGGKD
T2 sequence (P05107 23-769): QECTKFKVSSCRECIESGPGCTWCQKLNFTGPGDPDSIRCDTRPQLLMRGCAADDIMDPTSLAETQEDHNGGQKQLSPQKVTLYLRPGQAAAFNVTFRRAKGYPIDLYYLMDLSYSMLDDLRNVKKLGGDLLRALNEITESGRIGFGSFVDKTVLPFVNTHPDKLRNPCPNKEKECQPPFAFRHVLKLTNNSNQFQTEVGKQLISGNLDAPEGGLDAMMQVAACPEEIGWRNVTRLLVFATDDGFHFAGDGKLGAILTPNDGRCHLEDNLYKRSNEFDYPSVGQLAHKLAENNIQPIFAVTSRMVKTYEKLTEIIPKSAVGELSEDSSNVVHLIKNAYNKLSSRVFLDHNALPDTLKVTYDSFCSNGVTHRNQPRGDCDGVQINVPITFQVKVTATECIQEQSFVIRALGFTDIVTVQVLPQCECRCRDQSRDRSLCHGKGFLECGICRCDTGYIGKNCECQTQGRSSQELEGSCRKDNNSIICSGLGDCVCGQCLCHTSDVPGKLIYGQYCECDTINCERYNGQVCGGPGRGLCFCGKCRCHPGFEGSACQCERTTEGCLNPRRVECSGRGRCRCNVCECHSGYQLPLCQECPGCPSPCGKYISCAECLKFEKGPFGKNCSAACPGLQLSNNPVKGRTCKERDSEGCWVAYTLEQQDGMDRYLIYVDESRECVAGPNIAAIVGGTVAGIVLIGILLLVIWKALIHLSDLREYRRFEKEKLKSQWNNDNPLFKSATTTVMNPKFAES

LAD Raw Fluorescence Units against LFA-1; Dose 3 µM; Ratio of raw counts Compound/THI0349 (αLβ2/ICAM-1)	Compound	Group against VCAM (α4β1/VCAM-1)	pEC50 (α4β1/VCAM-1)
0.1	CCOC(=O)c1coc(N(Cc2cccs2)Cc2cccs2)n1 [Compound 13, ethyl 2-(bis(thiophen-2-ylmethyl)amino)oxazole-4-carboxylate]	I (Group I maintains at least the same potency or better up to more than twice that of the EC50 of THI0349 ran on the same plate)	–
1.0	CCOC(=O)c1coc(N(Cc2cccc(OC)c2)Cc2cccc(OC)c2)n1 [Compound 14, ethyl 2-(bis(3-methoxybenzyl)amino)oxazole-4-carboxylate]	I (Group I maintains at least the same potency or better up to more than twice that of the EC50 of THI0349 ran on the same plate)	–
0.52	CCOC(=O)c1coc(N(Cc2ccc(OC)cc2)Cc2ccc(OC)cc2)n1 [Compound 15, ethyl 2-(bis(4-methoxybenzyl)amino)oxazole-4-carboxylate]	III (Group III more than five times the EC50 of THI0349)	–
0.49	CCOC(=O)c1coc(N(Cc2cccc(OCCOC)c2)Cc2cccc(OCCOC)c2)n1 [Compound 16, ethyl 2-(bis(3-(2-methoxyethoxy)benzyl)amino)oxazole-4-carboxylate]	II (Group II is more than twice that of THI0349 but less than five times THI0349's EC50)	–
0.17	COc1cccc(CNC(=O)c2coc(N(Cc3cccc(OC)c3)Cc3cccc(OC)c3)n2)c1 [Compound 18, 2-(bis(3-methoxybenzyl)amino)-N-(3-methoxybenzyl)oxazole-4-carboxamide]	II (Group II is more than twice that of THI0349 but less than five times THI0349's EC50)	–
0.12	COc1ccc(CCNC(=O)c2coc(N(Cc3cccc(OC)c3)Cc3cccc(OC)c3)n2)cc1 [Compound 19, 2-(bis(3-methoxybenzyl)amino)-N-(4-methoxyphenethyl)oxazole-4-carboxamide]	II (Group II is more than twice that of THI0349 but less than five times THI0349's EC50)	–
0.19	COc1ccc(CCCNC(=O)c2coc(N(Cc3cccc(OC)c3)Cc3cccc(OC)c3)n2)cc1 [Compound 20, 2-(bis(3-methoxybenzyl)amino)-N-(3-(4-methoxyphenyl)propyl)oxazole-4-carboxamide]	II (Group II is more than twice that of THI0349 but less than five times THI0349's EC50)	–
–	COc1ccc(CCNC(=O)c2csc(N(Cc3cccc(OC)c3)Cc3cccc(OC)c3)n2)cc1 [Compound 21, 2-(bis(3-methoxybenzyl)amino)-N-(4-methoxyphenethyl)thiazole-4-carboxamide]	I (Group I maintains at least the same potency or better up to more than twice that of the EC50 of THI0349 ran on the same plate)	–
0.69	COc1ccc(CCCNC(=O)c2cnc(N(Cc3cccc(OC)c3)Cc3cccc(OC)c3)o2)cc1 [Compound 22, 2-(bis(3-methoxybenzyl)amino)-N-(3-(4-methoxyphenyl)propyl)oxazole-5-carboxamide]	I (Group I maintains at least the same potency or better up to more than twice that of the EC50 of THI0349 ran on the same plate)	–
0.85	COc1ccc(CCCNC(=O)c2csc(N(Cc3cccc(OC)c3)Cc3cccc(OC)c3)n2)cc1 [Compound 23, 2-(bis(3-methoxybenzyl)amino)-N-(3-(4-methoxyphenyl)propyl)thiazole-4-carboxamide]	I (Group I maintains at least the same potency or better up to more than twice that of the EC50 of THI0349 ran on the same plate)	–
–	CCOC(=O)c1csc(N(Cc2cccc(OC)c2)Cc2ccc3nc[nH]c3c2)n1 [Compound 120, ethyl 2-(((1H-benzo[d]imidazol-6-yl)methyl)(3-methoxybenzyl)amino)thiazole-4-carboxylate]	III (Group III more than five times the EC50 of THI0349)	–
–	COc1cccc(CN(Cc2cccc(OC)c2)c2nc(COC3CCOCC3)cs2)c1 [Compound 122, N,N-bis(3-methoxybenzyl)-4-((tetrahydro-2H-pyran-4-yloxy)methyl)thiazol-2-amine]	II (Group II is more than twice that of THI0349 but less than five times THI0349's EC50)	–
–	COc1cccc(CN(Cc2cccc(OC)c2)c2nc(COC3COC3)cs2)c1 [Compound 123, N,N-bis(3-methoxybenzyl)-4-((oxetan-3-yloxy)methyl)thiazol-2-amine]	II (Group II is more than twice that of THI0349 but less than five times THI0349's EC50)	–
–	COc1cccc(CN(Cc2cccc(OC)c2)c2nc(COCC3CCOCC3)cs2)c1 [Compound 124, N,N-bis(3-methoxybenzyl)-4-(((tetrahydro-2H-pyran-4-yl)methoxy)methyl)thiazol-2-amine]	II (Group II is more than twice that of THI0349 but less than five times THI0349's EC50)	–
–	COc1cccc(CN(Cc2cccc(OC)c2)c2nc(CN(C)C3CCOCC3)cs2)c1 [Compound 125, N,N-bis(3-methoxybenzyl)-4-((methyl(tetrahydro-2H-pyran-4-yl)amino)methyl)thiazol-2-amine]	II (Group II is more than twice that of THI0349 but less than five times THI0349's EC50)	–
–	COc1cccc(CN(Cc2cccc(OC)c2)c2nc(CNC3CCN(C)CC3)cs2)c1 [Compound 126, N,N-bis(3-methoxybenzyl)-4-((1-methylpiperidin-4-ylamino)methyl)thiazol-2-amine]	III (Group III more than five times the EC50 of THI0349)	–
–	COc1cccc(CN(Cc2cccc(OC)c2)c2nc(CNC3CCOCC3)cs2)c1 [Compound 128, N,N-bis(3-methoxybenzyl)-4-((tetrahydro-2H-pyran-4-ylamino)methyl)thiazol-2-amine]	I (Group I maintains at least the same potency or better up to more than twice that of the EC50 of THI0349 ran on the same plate)	–
–	COc1cccc(CN(Cc2cccc(OC)c2)c2nc(COCC3COC3)cs2)c1 [Compound 129, N,N-bis(3-methoxybenzyl)-4-((oxetan-3-ylmethoxy)methyl)thiazol-2-amine]	II (Group II is more than twice that of THI0349 but less than five times THI0349's EC50)	–
–	COc1cccc(CN(Cc2cccc(OC)c2)c2nc(CNCC3CCN(C)CC3)cs2)c1 [Compound 130, N,N-bis(3-methoxybenzyl)-4-(((1-methylpiperidin-4-yl)methylamino)methyl)thiazol-2-amine]	III (Group III more than five times the EC50 of THI0349)	–
–	COc1cccc(CN(Cc2cccc(OC)c2)c2nc(COCCOC3CCOCC3)cs2)c1 [Compound 131, N,N-bis(3-methoxybenzyl)-4-((2-(tetrahydro-2H-pyran-4-yloxy)ethoxy)methyl)thiazol-2-amine]	I (Group I maintains at least the same potency or better up to more than twice that of the EC50 of THI0349 ran on the same plate)	–
–	CCCC[C@@H](COC(=O)N(Cc1cccs1)Cc1cccs1)NC(=O)N[C@@H](CC(=O)OC)c1ccc2c(c1)OCO2 [THI0019, reference compound]	–	4.48
–	O=C(OCCOCCOCCOC(=O)N(Cc1cccs1)Cc1cccs1)N(Cc1cccs1)Cc1cccs1 [THI0349, reference compound]	–	4.96
